# Earlier results in US12161733B2, “Chemical conjugates of Evans Blue derivatives and their use as radiotherapy and imaging agents for targeting prostate cancer” (THE UNITED STATES OF AMERICA, AS REPRESENTED BY THE …, priority 2018, dated 2024).
# Tested on: prostate cancer patients
smiles,measurement,setting,value
O=C([O-])CN1CCN(CC(=O)[O-])CCN(CC(=O)NCC2CCC(C(=O)N[C@@H](Cc3ccc4ccccc4c3)C(=O)NCCCC[C@H](NC(=O)N[C@@H](CCC(=O)O)C(=O)O)C(=O)O)CC2)CCN(CC(=O)[O-])CC1.[177Lu+3] (some centres unmarked) [^177Lu-PSMA-617],side effects,long-term toxicity unknown,only stage 1-2 hematologic toxicities and sporadically mild xerostomia and fatigue
same,partial response rates,"up to 3 cycles, response limited to as few as several weeks in some patients",70%-80%
